Data from publication PMC6905855, “Agonist-specific voltage-dependent gating of lysosomal two-pore Na^+ channels” (eLife, 2019).
Where “and” joins values, the source holds several entries; their conditions need not be identical. Identical values can stand only once.

Columns and labels:
[1] = biological target: T1, hTPC2 (Homo sapiens, UniProt Q8NHX9); assay: Whole-endolysosome recordings of ITPC2; format: biochemical; settings: for inactivation of ITPC2, I500ms / I10ms: @-120mV; for time course of LyNa-VA1.2-induced ITPC2: EL
T1 construct: expressed in transfected cells; host or cells: Cos1 and HEK293
T1 sequence (Q8NHX9 whole entry): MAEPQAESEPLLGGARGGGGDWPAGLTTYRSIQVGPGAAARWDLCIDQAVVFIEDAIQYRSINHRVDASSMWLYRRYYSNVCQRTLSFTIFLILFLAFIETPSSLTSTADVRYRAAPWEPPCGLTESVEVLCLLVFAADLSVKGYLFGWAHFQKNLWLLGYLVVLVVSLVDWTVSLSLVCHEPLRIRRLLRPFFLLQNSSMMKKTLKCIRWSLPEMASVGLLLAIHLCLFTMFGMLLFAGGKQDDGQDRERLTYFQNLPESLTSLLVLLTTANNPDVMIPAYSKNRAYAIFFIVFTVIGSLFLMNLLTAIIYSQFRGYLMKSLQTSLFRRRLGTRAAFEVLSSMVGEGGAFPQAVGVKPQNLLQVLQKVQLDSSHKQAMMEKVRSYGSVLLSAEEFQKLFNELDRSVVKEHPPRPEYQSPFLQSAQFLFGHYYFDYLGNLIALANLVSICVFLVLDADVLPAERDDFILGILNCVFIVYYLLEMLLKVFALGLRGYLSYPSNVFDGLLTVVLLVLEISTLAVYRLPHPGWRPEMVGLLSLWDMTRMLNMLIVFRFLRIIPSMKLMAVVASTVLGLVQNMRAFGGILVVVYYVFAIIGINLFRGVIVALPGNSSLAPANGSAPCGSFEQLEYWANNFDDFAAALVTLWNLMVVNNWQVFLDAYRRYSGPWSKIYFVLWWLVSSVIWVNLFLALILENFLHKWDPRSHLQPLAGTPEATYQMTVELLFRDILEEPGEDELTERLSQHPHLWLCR

[2] = biological target: T2, hTPC1 (Homo sapiens, UniProt Q9ULQ1); assay: Whole-endolysosome recordings of ITPC1; format: biochemical
T2 construct: expressed in transfected cells; host or cells: Cos1
Experimental: It was therefore of interest to explore whether TCAs/LyNa-VAs could also act on TPC1. To investigate this, we used two different voltage paradigms. […] Second, we used a tail current paradigm to measure the amplitude of the peak inward current at −120 mV following prolonged steps to various potentials (Figure 4E).
Figure 4. […] HP = 0 mV. […] Dotted lines in A indicate where the currents were measured. […] Data are presented as Mean ± S.E.M (n = 3 patches). […] (G) Normalized I-V plots of basal voltage-dependent currents in WT TPC1- and TPC1^R540I-transfected cells. […] Figure 4—source data 1. […] Figure 4—figure supplement 1. […] (A) A voltage protocol that elicited ITPC1 tail currents as shown in Figure 4E (from −140 to 100 mV with a ∆V = 20 mV, 1 s with a 10 s inter-step interval). Arrows indicate where tail currents were measured. (B) A voltage protocol that elicited ITPC1 tail currents as shown in C. […] HP = 0 mV. […] (A) Basal whole-endolysosome ITPC1 (left) or ITPC1-R540I (right) was elicited by voltage steps (−140 to +100 mV with ΔV = 20 mV) in the absence of PI(3,5)P2 in TPC1-transfected Cos1 cells ([She et al., 2019]). Tail currents were elicited at −120 mV. (B) The effects of PI(3,5)P2 (0.3 µM) on ITPC1 (left) and ITPC1-R540I (right) step currents. […] A preconditioning voltage (+80 mV, 0.1 s) was applied before voltage steps starting from −140 to 100 mV (0.5 s, ∆V = 20 mV).
All TPC1 and TPC2 mutants were generated with a site-directed mutagenesis kit (Qiagen) using EGFP- human TPC1 and TPC2 as the templates. All constructs were confirmed by DNA sequencing.
Whole-endolysosome recordings were performed on manually isolated enlarged endolysosomes ([Wang et al., 2012]). In brief, a patch pipette was pressed against a cell and quickly pulled away to slice the cell membrane. Enlarged endolysosomes were released into a dish and identified by monitoring EGFP-TPC1/2 or the mCherry-TPC1/2 fluorescence. After formation of a gigaseal between the patch pipette and the enlarged endolysosome, capacitance transients were compensated. Voltage steps of several hundred mVs with millisecond duration were then applied to break into the vacuolar membrane. The whole-endolysosome configuration was verified by the re-appearance of capacitance transients after break-in.
Data were collected using an Axopatch 200A patch clamp amplifier, Digidata 1440, and pClamp 10.2 software (Axon Instruments). Whole-endolysosome currents were digitized at 10 kHz and filtered at 2 kHz. All experiments were conducted at room temperature (21–23°C), and all recordings were analyzed with pClamp 10.2, and Origin 8.0 (OriginLab, Northampton, MA). The permeability to cations (relative to PNa) was estimated based on following equations ([Lewis, 1979]) and Erev measurement under bi-ionic conditions:(1) PX/PNa=γNa/γX{[Na^+]Luminal/[X^+]Cytoplasmic}{exp([…])} (2) PCa/PNa=γNa/γCa{[Na^+]Cytoplasmic/[4[Ca^2+]Luminal}{exp(ErevF/RT)}{1+exp(ErevF/RT)} where R, T, F, Erev, and γ are, respectively, the gas constant, absolute temperature, Faraday constant, reversal potential, and activity coefficient. The liquid junction potentials were measured and corrected as described ([Neher, 1992]).

[3] = biological target: T3, surface-expressing mutant TPC2 channel (TPC2^LL/AA) in HEK293 cells (Homo sapiens, UniProt Q8NHX9, L11A/L12A); assay: Whole-cell recordings of ITPC2-LL/AA; format: cell-based; settings: for voltage-dependent inactivation of ITPC2, I1s / 0s: @-140mV; for time course of LyNa-VA1.2-induced ITPC2: wc; for current density: whole cell recordings
T3 construct: expressed in transfected cells; host or cells: HEK293
T3 sequence (Q8NHX9 whole entry L11A/L12A): as the sequence (Q8NHX9 whole entry) above, with L11A, L12A counted along it
Outline: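 HEK293 cells transiently expressing EGFP-tagged human TPC2 L11A/L12A, a plasma-membrane-targeted mutant, recorded 24–36 h post-transfection. Whole-cell patch clamp with fast perfusion of bath solutions; currents digitized at 10 kHz and filtered at 2 kHz.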

[4] = tested on: T4, TPC2^K204A in HEK293 cells; assay: Whole-cell recordings of ITPC2-K204A; format: cell-based, human; settings: TPC2^K204A-transfected HEK293 cells
T4 construct: expressed in transfected cells; host or cells: HEK293

[5] = lysosome, 200 µM, individual recordings
[6] = whole-endolysosome, 200 µM, mean ± S.E.M
[7] = whole cell, 200 µM, individual recordings
[8] = whole-cell, 200 µM, mean ± S.E.M

Compound: CNCCCN1c2ccccc2CCc2ccccc21 [LyNa-VA1.2, Desipramine]
- inactivation of ITPC2, I500ms / I10ms ([1]; PI(3,5)P2 0.3 µM, LyNa-VA1.2 100 µM, LyNA1 300 µM, individual tests): 0.6243 and 0.7434 and 0.4902 and 0.5999 and 0.6758
- inactivation of ITPC2, I500ms / I10ms ([1]; mean): 0.6267
- time course of LyNa-VA1.2-induced ITPC2 ([1]; time 0 s): -0.016
- time course of LyNa-VA1.2-induced ITPC2 ([1]; time 2 s): -0.01474
- time course of LyNa-VA1.2-induced ITPC2 ([1]; time 4 s): -0.01598
- time course of LyNa-VA1.2-induced ITPC2 ([1]; time 6 s): -0.00988
- time course of LyNa-VA1.2-induced ITPC2 ([1]; time 8 s): -0.00688
- time course of LyNa-VA1.2-induced ITPC2 ([1]; time 10 s): -0.02054
- time course of LyNa-VA1.2-induced ITPC2 ([1]; time 12 s): -0.02108
- time course of LyNa-VA1.2-induced ITPC2 ([1]; time 14 s): -0.1089
- time course of LyNa-VA1.2-induced ITPC2 ([1]; time 16 s): -0.1984
- time course of LyNa-VA1.2-induced ITPC2 ([1]; time 18 s): -0.2507
- time course of LyNa-VA1.2-induced ITPC2 ([1]; time 20 s): -0.3079
- time course of LyNa-VA1.2-induced ITPC2 ([1]; time 22 s): -0.5611
- time course of LyNa-VA1.2-induced ITPC2 ([1]; time 24 s): -0.7092
- time course of LyNa-VA1.2-induced ITPC2 ([1]; time 26 s): -0.8241
- time course of LyNa-VA1.2-induced ITPC2 ([1]; time 28 s): -0.8579
- time course of LyNa-VA1.2-induced ITPC2 ([1]; time 30 s): -0.8577
- time course of LyNa-VA1.2-induced ITPC2 ([1]; time 32 s): -0.9123
- time course of LyNa-VA1.2-induced ITPC2 ([1]; time 34 s): -1
- time course of LyNa-VA1.2-induced ITPC2 ([1]; time 36 s): -0.9719
- time course of LyNa-VA1.2-induced ITPC2 ([1]; time 38 s): -0.9923
- time course of LyNa-VA1.2-induced ITPC2 ([1]; time 40 s): -0.9868
- time course of LyNa-VA1.2-induced ITPC2 ([1]; time 42 s): -0.989
- Latency of induced ITPC2 [1, 5]: 6 s and 8 s and 10 s
- Time constant (τ) of induced ITPC2 [1, 5]: 6.38 s and 6 s and 5.4 s
- ITPC2 ([1]; whole endolysosome recordings with 100 µM of LyNa-VAs at −120 mV): 1120 ± 94 pA
- latency of TPC2 activation [1, 6]: 7 ± 1 s
- time constant (τ) of TPC2 activation [1, 6]: 8 ± 2 s
- Dose-dependent activation of TPC1 (normalized ITPC1) ([2]; 3 µM, individual patches): 0.01236 and 0.1007 and 0.1129
- Dose-dependent activation of TPC1 (normalized ITPC1) ([2]; 3 µM, mean): 0.07532
- Dose-dependent activation of TPC1 (normalized ITPC1) ([2]; 10 µM, individual patches): 0.3905 and 0.6013 and 0.2982
- Dose-dependent activation of TPC1 (normalized ITPC1) ([2]; 10 µM, mean): 0.43
- Dose-dependent activation of TPC1 (normalized ITPC1) ([2]; 30 µM, individual patches): 0.9756 and 1 and 0.7567
- Dose-dependent activation of TPC1 (normalized ITPC1) ([2]; 30 µM, mean): 0.9108
- Dose-dependent activation of TPC1 (normalized ITPC1) ([2]; 100 µM, individual patches): 1 (2×) and 0.518
- Dose-dependent activation of TPC1 (normalized ITPC1) ([2]; 100 µM, mean): 0.8393
- Dose-dependent activation of TPC1 (normalized ITPC1) ([2]; 300 µM, individual patches): 0.9299 and 0.7273
- Dose-dependent activation of TPC1 (normalized ITPC1) ([2]; 300 µM, mean): 0.8286
- EC50 ([2]; whole-endolysosome, n = 3 patches, read-out: EC50, activation of TPC1): 10 ± 1 µM
- voltage-dependent inactivation of ITPC2, I1s / 0s ([3]; whole-cell, individual recordings): 0.09192 and 0.1098 and 0.1458
- voltage-dependent inactivation of ITPC2, I1s / 0s ([3]; whole-cell, mean): 0.1158
- activation of whole-cell ITPC2-LL/AA (in words) ([3]; bath application, symmetric Na^+, 100 µM where stated): ITPC2 was evoked
- time course of LyNa-VA1.2-induced ITPC2 ([3]; time 0 s): -0.02373
- time course of LyNa-VA1.2-induced ITPC2 ([3]; time 2 s): -0.02853
- time course of LyNa-VA1.2-induced ITPC2 ([3]; time 4 s): -0.024
- time course of LyNa-VA1.2-induced ITPC2 ([3]; time 6 s): -0.02111
- time course of LyNa-VA1.2-induced ITPC2 ([3]; time 8 s): -0.02193
- time course of LyNa-VA1.2-induced ITPC2 ([3]; time 10 s): -0.01987
- time course of LyNa-VA1.2-induced ITPC2 ([3]; time 12 s): -0.0181
- time course of LyNa-VA1.2-induced ITPC2 ([3]; time 14 s): -0.01154
- time course of LyNa-VA1.2-induced ITPC2 ([3]; time 16 s): -7.79E-04
- time course of LyNa-VA1.2-induced ITPC2 ([3]; time 18 s): -0.01449
- time course of LyNa-VA1.2-induced ITPC2 ([3]; time 20 s): -0.01685
- time course of LyNa-VA1.2-induced ITPC2 ([3]; time 22 s): -0.0503
- time course of LyNa-VA1.2-induced ITPC2 ([3]; time 24 s): -0.06829
- time course of LyNa-VA1.2-induced ITPC2 ([3]; time 26 s): -0.1356
- time course of LyNa-VA1.2-induced ITPC2 ([3]; time 28 s): -0.1797
- time course of LyNa-VA1.2-induced ITPC2 ([3]; time 30 s): -0.2005
- time course of LyNa-VA1.2-induced ITPC2 ([3]; time 32 s): -0.2805
- time course of LyNa-VA1.2-induced ITPC2 ([3]; time 34 s): -0.3854
- time course of LyNa-VA1.2-induced ITPC2 ([3]; time 36 s): -0.4381
- time course of LyNa-VA1.2-induced ITPC2 ([3]; time 38 s): -0.4224
- time course of LyNa-VA1.2-induced ITPC2 ([3]; time 40 s): -0.5193
- time course of LyNa-VA1.2-induced ITPC2 ([3]; time 42 s): -0.5569
- time course of LyNa-VA1.2-induced ITPC2 ([3]; time 44 s): -0.6324
- time course of LyNa-VA1.2-induced ITPC2 ([3]; time 46 s): -0.7257
- time course of LyNa-VA1.2-induced ITPC2 ([3]; time 48 s): -0.7464
- time course of LyNa-VA1.2-induced ITPC2 ([3]; time 50 s): -0.8325
- time course of LyNa-VA1.2-induced ITPC2 ([3]; time 52 s): -0.8418
- time course of LyNa-VA1.2-induced ITPC2 ([3]; time 54 s): -0.8932
- time course of LyNa-VA1.2-induced ITPC2 ([3]; time 56 s): -0.9277
- time course of LyNa-VA1.2-induced ITPC2 ([3]; time 58 s): -0.9561
- time course of LyNa-VA1.2-induced ITPC2 ([3]; time 60 s): -0.9666
- time course of LyNa-VA1.2-induced ITPC2 ([3]; time 62 s): -0.9966
- time course of LyNa-VA1.2-induced ITPC2 ([3]; time 64 s): -0.9748
- time course of LyNa-VA1.2-induced ITPC2 ([3]; time 66 s): -1.0004
- current density ([3]; 5 µM, individual recordings): 10.3471 pA/pF and 4.752 pA/pF and 3.368 pA/pF and 5.887 pA/pF
- current density ([3]; 10 µM, individual recordings): 14.5785 pA/pF and 6.451 pA/pF and 2.849 pA/pF and 8.548 pA/pF
- current density ([3]; 20 µM, individual recordings): 24.0331 pA/pF and 8.699 pA/pF and 7.085 pA/pF and 17.3826 pA/pF
- current density ([3]; 50 µM, individual recordings): 89.8595 pA/pF and 25.0088 pA/pF and 25.4245 pA/pF and 76.3478 pA/pF
- current density ([3]; 100 µM, individual recordings): 240.859 pA/pF and 94.6372 pA/pF and 96.3302 pA/pF and 256.8 pA/pF
- current density ([3]; 200 µM, individual recordings): 297.455 pA/pF and 239.381 pA/pF and 181.434 pA/pF and 429.652 pA/pF
- current density ([3]; 400 µM, individual recordings): 245.487 pA/pF and 193.066 pA/pF and 464.052 pA/pF
- Latency of induced ITPC2 [3, 7]: 14 s and 12 s and 20 s
- Time constant (τ) of induced ITPC2 [3, 7]: 55 s and 48 s and 30.1 s and 39.1 s
- EC50 ([3]; whole-cell recordings at −140 mV, TPC2^LL/AA-transfected HEK293 cells, read-out: EC50): 87 ± 8 µM
- latency of TPC2 activation [3, 8]: 15 ± 2 s
- time constant (τ) of TPC2 activation [3, 8]: 43 ± 5 s
- activation of whole-cell ITPC2-K204A (in words) [4]: activated
